Data: PMC5365251, “Biophysical assay for tethered signaling reactions reveals tether-controlled activity for the phosphatase SHP-1” (Science Advances, 2017)

Experiments:
[1] = biological target: T1, SHP-1 (Mus musculus, UniProt P29351); assay: SPR of SHP-1 injected over ITIM peptides with different PEG linker lengths: reach and tethered catalysis (MPDPDE fit); type: biochemical, murine; conditions: for L (reach parameter) versus tether length: SHP-1 over peptides, average fit, PEG28 n = 15, PEG0 n = 2, 10°C, HBS-EP pH 7.4; for kcat*(tethered) versus tether length: SHP-1 over peptides with shorter PEG linkers, compared with PEG28-ITIM, Fig. 5B
T1 construct: 6xHis (N); made in house; host or cells: Escherichia coli BL21-CodonPlus (DE3)-RIPL
T1 sequence (P29351 whole entry): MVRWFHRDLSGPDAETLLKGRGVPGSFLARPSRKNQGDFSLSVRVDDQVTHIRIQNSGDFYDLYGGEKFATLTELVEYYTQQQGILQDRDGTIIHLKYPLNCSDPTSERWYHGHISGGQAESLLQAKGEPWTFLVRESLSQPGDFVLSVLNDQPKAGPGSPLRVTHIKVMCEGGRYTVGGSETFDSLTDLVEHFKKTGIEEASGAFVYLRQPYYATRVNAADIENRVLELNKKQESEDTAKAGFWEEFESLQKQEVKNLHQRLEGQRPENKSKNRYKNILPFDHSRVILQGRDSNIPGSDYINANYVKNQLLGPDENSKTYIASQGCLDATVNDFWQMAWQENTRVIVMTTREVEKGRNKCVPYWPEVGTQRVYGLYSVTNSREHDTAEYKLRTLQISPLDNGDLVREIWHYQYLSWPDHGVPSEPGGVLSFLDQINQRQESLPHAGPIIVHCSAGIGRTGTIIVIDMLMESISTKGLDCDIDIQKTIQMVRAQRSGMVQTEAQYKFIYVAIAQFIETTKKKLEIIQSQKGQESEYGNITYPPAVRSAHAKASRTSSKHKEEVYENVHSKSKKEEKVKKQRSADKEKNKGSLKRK
Experimental: (§1) A construct expressing murine SHP-1 with an N-terminal 6× His tag was provided by M. H. Brown. Mutation of the SH2 domains was performed using a quick-change strategy. The mutations introduced were R30K and R33E for the N-terminal SH2 domain mutant and R136K for the C-terminal SH2 domain mutant previously shown to result in loss of binding ([6]). All peptides were ordered from PeptideSynthetics and were certified to be >95% pure. Peptides sequences were derived from the membrane-proximal ITIM sequence of mouse LAIR-1 receptor.
(§2) Experiments were performed on a Biacore 3000 instrument (GE Healthcare Life Sciences). All experiments were performed at 10°C and with a buffer flow rate of 10 μl/min. The buffer used was Hepes-buffered saline (HBS-EP; GE Healthcare Life Sciences), which contained 10 mM Hepes (pH 7.4), 150 mM NaCl, 3 mM EDTA, and 0.005% Surfactant P20.
(§3) A CM5 sensorchip was coupled with streptavidin to near saturation (typically between 4000 and 7000 RU) using the amine coupling kit (GE Healthcare Life Sciences) as described previously ([42]). After streptavidin was coupled, biotinylated peptides were injected to give the indicated concentrations in experimental flow cells, and excess biotin-binding sites were blocked with biotin in HBS-EP. The molar ratio of peptide to streptavidin was kept below 1:1 to ensure that peptide immobilization was random and not clustered on the tetravalent streptavidin molecules. Reference flow cells were treated with buffer and then blocked with biotin; pilot experiments using unphosphorylated control peptides in reference flow cells were indistinguishable from buffer-treated reference flow cells when injected with SHP-1. The chip surface was then conditioned with 5 × 5-min injections of HBS-EP. SHP-1 protein in HBS-EP with 1 mM dithiothreitol was then injected over reference and experimental flow cells in series for 5 min at the indicated concentrations. All SPR data were converted from the reference-subtracted data (in resonance units) to fraction bound by dividing the resonance units by the theoretical maximum resonance units expected if the experimental flow cell was saturated with bound SHP-1.
The five fitting parameters (p1, p2, p3, p4, and p5) are related to the five biophysical/biochemical constants as follows: p1 = kon [SHP-1], p2 = koff, p3=kcat*(tethered)× [peptide], p4=kcat*(tethered)/L^3 , and p5=kcat*(solution)× [SHP-1].
The MPDPDE model was fit to the experimental data using lsqcurvefit in Matlab (Mathworks). Specifically, the value of nB from the MPDPDE model was fit to the experimental SPR data that were normalized to maximum binding. Each fit was repeated multiple times with different initial guesses for the five fitting parameters to make certain that the best fit was achieved (global convergence). […]

[2] = biological target: T1, SHP-1; assay: SPR of SHP-1 injected over ITIM peptides: SHP-1 binding to the peptides; parameters: species or system murine; conditions: SHP-1 over peptides with shorter PEG linkers, compared with PEG28-ITIM; Fig. 5B
Experimental: as §1, §2
A CM5 sensorchip was coupled with streptavidin to near saturation (typically between 4000 and 7000 RU) using the amine coupling kit (GE Healthcare Life Sciences) as described previously ([42]). After streptavidin was coupled, biotinylated peptides were injected to give the indicated concentrations in experimental flow cells, and excess biotin-binding sites were blocked with biotin in HBS-EP. […]

[3] = system: PEG28-ITIM; assay: SPR of SHP-1 injected over immobilised PEG28-ITIM: binding constants (MPDPDE fit); parameters: species or system mouse; conditions: SHP-1 variants over PEG28-ITIM, compared with wild-type
Experimental: as §1, §2, §3
To determine the concentration of peptide in the assays, we first needed a conversion factor between the resonance units and the mass of peptide at the chip surface. We determined this conversion factor by injecting four concentrations of SHP-1 over a control flow cell on a CM5 chip and plotting the mass of SHP-1 injected against the raw resonance unit change. We repeated this on seven flow cells across four sensor chips to get an average slope of 149 ± 15 RU per g/liter (±SEM). […]

[4] = system: PEG28-ITIM; assay: SPR of SHP-1 injected over immobilised PEG28-ITIM: tethered/solution catalysis and reach (MPDPDE fit); type: biochemical, mouse; conditions: for L (reach parameter), SH2 variants / allosteric activation (in words), SH2 variants: SHP-1 variants over PEG28-ITIM; for L (reach parameter), SH2 variants: average fit Fig. 6B: WT n = 15, N-SH2 mutant n = 3, C-SH2 mutant n = 9
Experimental: as §1, §2, §3
To determine the concentration of peptide in the assays, we first needed a conversion factor between the resonance units and the mass of peptide at the chip surface. We determined this conversion factor by injecting four concentrations of SHP-1 over a control flow cell on a CM5 chip and plotting the mass of SHP-1 injected against the raw resonance unit change. We repeated this on seven flow cells across four sensor chips to get an average slope of 149 ± 15 RU per g/liter (±SEM). This constant, together with the molecular weight of the peptide, was used to convert between the resonance units of peptides immobilized and the molar concentration at the chip surface. For example, 48.5 RU of PEG28-ITIM (molecular weight, 3221) was immobilized to obtain [peptide] = 97.1 μM (Fig. 2A).
From the MPDPDE model–simulated SPR traces, one would predict that the kcat*(solution) (fig. S4, G and H) and L (fig. S4F) are likely to be very sensitive to small systematic errors in the SPR trace at longer time scales. Nonspecific binding and baseline drift are two well-known sources of such systemic errors that can produce artifacts at long time scales (see fig. S6A for examples). To exclude data affected by these artifacts, we propose a simple quality control check that greatly improves the accuracy of estimating L, kcat*(tethered) , and kcat*(solution) . As a measure of the signal-to-noise ratio at long time points, we took the resonance units 20 s after the injection was completed (noise) and divided it by the resonance units 20 s before the injection finished (signal). […] Data that had evidence of significant artifact were excluded from the study based on this criterion (red data points in fig. S6B). […]

Substance | L (reach parameter) versus tether length [1] | kon versus tether length [2] | kcat*(tethered) versus tether length [1] | L (reach parameter), SH2 variants [4] | allosteric activation (in words), SH2 variants ([4]; Fig. 6B) | other results
Biotin-(PEG)28-DLQEVTY*IQLDHH [PEG28-ITIM] | 23 nm |  |  |  |  | 
Biotin-(PEG)3-DLQEVTY*IQLDHH [PEG3-ITIM] |  | decrease | decrease |  |  | 
N-terminal mutant: SHP-1 with R30K and R33E mutations in the N-terminal SH2 domain |  |  |  | 16.5 nm | still exhibited allosteric activation | binding to ITIM peptide (in words), SH2 variants ([3]; listed as Mutation of the N-terminal SH2 domain): drastically reduced binding; binding to ITIM peptide (in words), SH2 variants ([3]; listed as N-terminal SH2 (N-SH2) mutant SHP-1): weak binding; kcat*(tethered) over kcat*(solution), SH2 mutant ([4]; N-SH2 mutant SHP-1 over PEG28-ITIM, n = 3): 10 fold; allosteric activation (in words), SH2 variants ([4]; Fig. 6B, listed as N-terminal SH2 (N-SH2) mutant SHP-1): allosteric activation is observed in both cases; reach (in words), SH2 variants ([4]; binding via C-terminal compared to N-terminal SH2 domain, PEG28-ITIM, Fig. 6B): reduced reach
Biotin-GDLQEVTY*IQLDHH [PEG0-ITIM] | 17 nm | decrease | decrease |  |  | 
C-terminal mutant: SHP-1 with R136K mutation in the C-terminal SH2 domain |  |  |  | 23.9 nm | allosteric activation is observed in both cases | binding to ITIM peptide (in words), SH2 variants [3]: weak effect on binding
